# Experiments:
# [1] = system: ABUTH; assay: Pre-emergence herbicidal action against ABUTH; format: in vivo, Abutilon theophrasti; conditions: 80 g/ha, scored visually after 3 weeks vs untreated controls (100% = plants have died, 0% = like control plants)
# Outline: (§1)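 Sandy loam pots, seeds covered with soil, then surface-treated with WP or EC formulations at 600–800 l/ha water plus 0.2% wetting agent. Greenhouse, 3 weeks. Percent damage vs untreated controls.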
# [2] = system: ALOMY; assay: Pre-emergence herbicidal action against ALOMY; format: in vivo, Alopecurus myosuroides; conditions: Alopecurus myosuroides, 504 h, pre-emergence
# Outline: as §1
# [3] = system: AMARE; assay: Pre-emergence herbicidal action against AMARE; format: in vivo, Amaranthus retroflexus
# Outline: as §1
# [4] = system: AVEFA; assay: Pre-emergence herbicidal action against AVEFA; format: in vivo, Avena fatua; conditions: 80 g/ha, pre-emergence
# Outline: as §1
# [5] = system: ECHCG; assay: Pre-emergence herbicidal action against ECHCG; format: in vivo, Echinochloa crus-galli; conditions: Echinochloa crus-galli, 504 h, 80 g/ha
# Outline: as §1
# [6] = system: LOLRI; assay: Pre-emergence herbicidal action against LOLRI; format: in vivo, Lolium rigidum; conditions: Lolium rigidum, 504 h, 80 g/ha
# Outline: as §1
# [7] = system: MATIN; assay: Pre-emergence herbicidal action against MATIN; format: in vivo, Matricaria inodora
# Outline: as §1
# [8] = system: PHBPU; assay: Pre-emergence herbicidal action against PHBPU; format: in vivo, Pharbitis purpurea; conditions: Ipomoea purpurea, 504 h, dosage 80 g/ha
# Outline: as §1
# [9] = system: SETVI; assay: Pre-emergence herbicidal action against SETVI; format: in vivo, Setaria viridis; conditions: Setaria viridis, 504 h, dosage 80 g/ha
# Outline: as §1
# [10] = system: VERPE; assay: Pre-emergence herbicidal action against VERPE; format: in vivo, Veronica persica; conditions: dosage 80 g/ha
# Outline: as §1
# [11] = system: VIOTR; assay: Pre-emergence herbicidal action against VIOTR; format: in vivo, Viola tricolor
# Outline: as §1
# [12] = system: DIGSA; assay: Pre-emergence herbicidal action against DIGSA; format: in vivo, Digitaria sanguinalis
# Outline: as §1
# [13] = system: ABUTH; assay: Post-emergence herbicidal action against ABUTH; format: in vivo, Abutilon theophrasti; conditions: dosage 20 g/ha, visual assessment about 3 weeks after treatment vs untreated controls
# Outline: (§2)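 Visual % rating (0% = as untreated, 100% = dead) ~3 wk after spraying one-leaf-stage plants grown in sandy loam; WP/EC in water at 600–800 l/ha, 0.2% wetting agent.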
# [14] = system: ALOMY; assay: Post-emergence herbicidal action against ALOMY; format: in vivo, Alopecurus myosuroides; conditions: Alopecurus myosuroides, 504 h, dosage 20 g/ha, visual assessment about 3 weeks after treatment vs untreated controls
# Outline: as §2
# [15] = system: AMARE; assay: Post-emergence herbicidal action against AMARE; format: in vivo, Amaranthus retroflexus; conditions: 20 g/ha, visual assessment about 3 weeks after treatment, 100% = plants have died, 0% = like control plants
# Outline: as §2
# [16] = system: ECHCG; assay: Post-emergence herbicidal action against ECHCG; format: in vivo, Echinochloa crus-galli; conditions: Echinochloa crus-galli, 504 h, dosage 20 g/ha
# Outline: as §2
# [17] = system: MATIN; assay: Post-emergence herbicidal action against MATIN; format: in vivo, Matricaria inodora; conditions: Tripleurospermum inodorum, 504 h
# Outline: as §2
# [18] = system: PHBPU; assay: Post-emergence herbicidal action against PHBPU; format: in vivo, Pharbitis purpurea; conditions: Ipomoea purpurea, 504 h, dosage 20 g/ha
# Outline: as §2
# [19] = system: POLCO; assay: Post-emergence herbicidal action against POLCO; format: in vivo, Polygonum convolvulus; conditions: dosage 20 g/ha
# Outline: as §2
# [20] = system: SETVI; assay: Post-emergence herbicidal action against SETVI; format: in vivo, Setaria viridis; conditions: Setaria viridis, 504 h
# Outline: as §2
# [21] = system: VIOTR; assay: Post-emergence herbicidal action against VIOTR; format: in vivo, Viola tricolor
# Outline: as §2
# [22] = system: STEME; assay: Pre-emergence herbicidal action against STEME; format: in vivo, Stellaria media
# Outline: as §1
# [23] = system: STEME; assay: Post-emergence herbicidal action against STEME; format: in vivo, Stellaria media; conditions: 20 g/ha
# Outline: as §2
# [24] = 80 g/ha, scored visually after 3 weeks vs untreated controls (100% = plants have died, 0% = like control plants)
smiles,measurement,setting,value
CCn1nnnc1NC(=O)c1ccc(Br)c(C(=O)NC2CC2)c1Cl [Example 2-179],pest or weed control at 80 g/ha,"[1]; Abutilon theophrasti, 504 h",100%
same,pest or weed control at 80 g/ha,[2]; [24],100%
same,pest or weed control at 20 g/ha,"[2]; 20 g/ha, scored visually after 3 weeks, 100% = plants have died, 0% = like control plants",80%
same,pest or weed control at 20 g/ha,"[3]; Amaranthus retroflexus, 504 h, 20 g/ha, scored visually after 3 weeks vs untreated controls, 100% = plants have died, 0% = like control plants",100%
same,pest or weed control at 80 g/ha,"[3]; Amaranthus retroflexus, 504 h, 80 g/ha, scored visually after 3 weeks vs untreated controls, 100% = plants have died, 0% = like control plants",100%
same,pest or weed control at 80 g/ha,"[4]; Avena fatua, 504 h",100%
same,pest or weed control at 80 g/ha,[5],100%
same,pest or weed control at 80 g/ha,[6],80%
same,pest or weed control at 20 g/ha,"[7]; Tripleurospermum inodorum, 504 h, dosage 20 g/ha",100%
same,pest or weed control at 80 g/ha,"[7]; Tripleurospermum inodorum, 504 h, dosage 80 g/ha",100%
same,pest or weed control at 80 g/ha,[8],80%
same,pest or weed control at 80 g/ha,[9],100%
same,pest or weed control at 80 g/ha,"[10]; Veronica persica, 504 h",90%
same,pest or weed control at 20 g/ha,"[11]; Viola tricolor, 504 h, dosage 20 g/ha",100%
same,pest or weed control at 80 g/ha,"[11]; Viola tricolor, 504 h, dosage 80 g/ha",100%
same,pest or weed control at 20 g/ha,"[12]; Digitaria sanguinalis, 504 h, dosage 20 g/ha",100%
same,pest or weed control at 80 g/ha,"[12]; Digitaria sanguinalis, 504 h, dosage 80 g/ha",100%
same,pest or weed control at 20 g/ha,"[13]; Abutilon theophrasti, 504 h",90%
same,pest or weed control at 20 g/ha,[14],90%
same,pest or weed control at 20 g/ha,"[15]; Amaranthus retroflexus, 504 h",100%
same,pest or weed control at 20 g/ha,[16],80%
same,pest or weed control at 5 g/ha,[17]; dosage 5 g/ha,80%
same,pest or weed control at 20 g/ha,[17]; dosage 20 g/ha,90%
same,pest or weed control at 20 g/ha,[18],80%
same,pest or weed control at 20 g/ha,"[19]; Fallopia convolvulus, 504 h",90%
same,pest or weed control at 5 g/ha,[20]; dosage 5 g/ha,90%
same,pest or weed control at 20 g/ha,[20]; dosage 20 g/ha,90%
same,pest or weed control at 5 g/ha,"[21]; Viola tricolor, 504 h, 5 g/ha",90%
same,pest or weed control at 20 g/ha,"[21]; Viola tricolor, 504 h, 20 g/ha",100%
CCCn1nnnc1NC(=O)c1ccc(S(C)(=O)=O)c(C(=O)NC2CC2)c1Cl [Example 3-125],Pre-emergence action against ABUTH (herbicidal activity),[1],100%
same,Pre-emergence action against AMARE in %,[3]; [24],100%
same,Pre-emergence action against AVEFA in %,[4],80%
same,Pre-emergence action against MATIN in %,[7]; dosage 20 g/ha,100%
same,Pre-emergence action against MATIN in %,[7]; dosage 80 g/ha,100%
same,Pre-emergence action against STEME in %,[22]; dosage 20 g/ha,90%
same,Pre-emergence action against STEME in %,[22]; dosage 80 g/ha,100%
same,Pre-emergence action against VERPE in %,[10],80%
same,Pre-emergence action against VIOTR in %,[11]; dosage 80 g/ha,100%
same,Pre-emergence action against DIGSA in %,[12]; dosage 80 g/ha,80%
same,Post-emergence action against ABUTH in %,[13],80%
same,Post-emergence action at 20 g/ha against AMARE in %,[15],90%
same,Post-emergence action against POLCO in %,[19],80%
same,Post-emergence action against STEME in %,[23],80%
same,Post-emergence action against VIOTR in %,[21]; 20 g/ha,80%

# From patent US12655116B2, “Substituted isophthalic acid diamides” (Bayer Aktiengesellschaft, priority 2020, dated 2026)
